Results from BindingDB's records for patent US12435089 (Tyk Medicines, 2025).

What was measured:
Experiment in all cases: Inhibitory Activity of the Compounds of the Invention Against ROS1, NTRK and ALK and their Drug-Resistant Kinases
[1] = molecular target: High affinity nerve growth factor receptor (Homo sapiens, UniProt P04629)
Procedure: (§1) Inhibition of protein kinase activity by compounds was carried out on the Radio-tagged HotSpot kinase experimental platform of Reaction Biology Corporation. Fresh reaction solution (20 mM HEPESpH 7.5, 10 mM MgCl2, 1 mM EGTA, 0.02% Brij35, 0.02 mg/ml BSA, 0.1 mM Na3VO4, 2 mM DTT, 1% DMSO) containing corresponding substrates was prepared, cofactor and kinase to be tested were added into the above solution and mixed gently. Echo550 pipetting system was used to add the test compound DMSO solution to each well (the blank control group was added with the corresponding volume of DMSO), then 33P-ATP (with a final specific activity of 0.01 μCi/μL) was added to start the reaction. The reaction solution was incubated at room temperature for 120 minutes.

[2] = molecular target: NT-3 growth factor receptor (Homo sapiens, UniProt Q16288)
Procedure: as §1

[3] = molecular target: Proto-oncogene tyrosine-protein kinase ROS (Homo sapiens, UniProt P08922)
Sequence of Proto-oncogene tyrosine-protein kinase ROS (P08922 whole entry): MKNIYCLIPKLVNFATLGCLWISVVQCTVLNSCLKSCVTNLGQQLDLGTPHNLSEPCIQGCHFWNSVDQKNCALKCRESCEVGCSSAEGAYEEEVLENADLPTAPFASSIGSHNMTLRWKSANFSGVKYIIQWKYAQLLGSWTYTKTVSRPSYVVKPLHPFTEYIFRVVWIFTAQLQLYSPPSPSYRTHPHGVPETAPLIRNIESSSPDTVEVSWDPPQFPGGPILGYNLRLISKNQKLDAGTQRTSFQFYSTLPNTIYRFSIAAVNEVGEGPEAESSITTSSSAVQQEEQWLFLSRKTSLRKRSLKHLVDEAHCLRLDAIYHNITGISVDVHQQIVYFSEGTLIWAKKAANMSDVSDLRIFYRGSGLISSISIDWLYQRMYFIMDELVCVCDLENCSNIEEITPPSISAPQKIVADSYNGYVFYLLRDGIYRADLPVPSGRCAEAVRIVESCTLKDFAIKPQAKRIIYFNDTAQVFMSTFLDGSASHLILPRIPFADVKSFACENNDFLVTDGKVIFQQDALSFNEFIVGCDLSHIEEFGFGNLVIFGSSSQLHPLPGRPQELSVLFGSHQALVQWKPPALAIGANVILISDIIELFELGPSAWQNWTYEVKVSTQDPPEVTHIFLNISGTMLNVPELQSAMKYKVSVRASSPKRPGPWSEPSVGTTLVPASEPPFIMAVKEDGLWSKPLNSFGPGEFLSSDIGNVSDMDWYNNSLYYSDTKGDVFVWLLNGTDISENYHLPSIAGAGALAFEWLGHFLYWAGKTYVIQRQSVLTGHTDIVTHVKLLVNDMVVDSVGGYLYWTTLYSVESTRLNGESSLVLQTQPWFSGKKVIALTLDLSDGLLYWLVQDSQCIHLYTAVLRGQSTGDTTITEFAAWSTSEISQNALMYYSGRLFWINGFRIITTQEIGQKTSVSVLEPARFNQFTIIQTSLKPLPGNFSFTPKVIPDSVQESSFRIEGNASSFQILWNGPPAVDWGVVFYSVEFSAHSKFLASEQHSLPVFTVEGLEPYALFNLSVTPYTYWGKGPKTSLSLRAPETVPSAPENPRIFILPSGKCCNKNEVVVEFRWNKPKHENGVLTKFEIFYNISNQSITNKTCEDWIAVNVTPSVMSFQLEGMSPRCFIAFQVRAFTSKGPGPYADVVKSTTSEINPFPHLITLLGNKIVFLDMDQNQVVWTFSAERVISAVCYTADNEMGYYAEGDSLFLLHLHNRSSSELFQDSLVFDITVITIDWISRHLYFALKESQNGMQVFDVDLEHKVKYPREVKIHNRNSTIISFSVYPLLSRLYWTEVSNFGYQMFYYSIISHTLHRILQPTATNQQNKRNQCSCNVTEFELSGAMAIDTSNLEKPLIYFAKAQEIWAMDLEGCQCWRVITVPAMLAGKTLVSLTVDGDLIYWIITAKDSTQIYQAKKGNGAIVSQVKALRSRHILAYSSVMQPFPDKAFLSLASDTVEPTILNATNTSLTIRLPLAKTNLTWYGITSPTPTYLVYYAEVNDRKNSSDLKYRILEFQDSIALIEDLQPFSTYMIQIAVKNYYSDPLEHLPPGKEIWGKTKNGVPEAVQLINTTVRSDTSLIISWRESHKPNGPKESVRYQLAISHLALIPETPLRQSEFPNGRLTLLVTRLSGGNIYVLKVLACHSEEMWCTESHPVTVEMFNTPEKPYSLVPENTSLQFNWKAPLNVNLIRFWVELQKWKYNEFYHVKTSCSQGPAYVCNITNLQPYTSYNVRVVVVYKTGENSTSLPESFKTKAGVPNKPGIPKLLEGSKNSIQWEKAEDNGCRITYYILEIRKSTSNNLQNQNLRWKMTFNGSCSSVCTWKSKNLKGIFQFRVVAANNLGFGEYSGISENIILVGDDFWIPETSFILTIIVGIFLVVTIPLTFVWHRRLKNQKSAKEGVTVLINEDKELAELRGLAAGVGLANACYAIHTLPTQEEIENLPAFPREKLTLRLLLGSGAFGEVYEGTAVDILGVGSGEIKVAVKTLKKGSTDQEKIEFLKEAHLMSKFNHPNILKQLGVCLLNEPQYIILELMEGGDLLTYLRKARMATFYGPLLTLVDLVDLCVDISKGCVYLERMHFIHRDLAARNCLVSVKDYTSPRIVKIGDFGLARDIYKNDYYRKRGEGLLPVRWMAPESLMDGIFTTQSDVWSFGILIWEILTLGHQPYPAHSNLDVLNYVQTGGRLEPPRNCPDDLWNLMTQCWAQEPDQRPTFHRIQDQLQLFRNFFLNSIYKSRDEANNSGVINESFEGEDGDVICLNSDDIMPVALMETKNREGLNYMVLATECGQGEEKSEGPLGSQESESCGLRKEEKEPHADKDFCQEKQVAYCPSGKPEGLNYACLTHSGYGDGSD
Procedure: as §1

Sequence of NT-3 growth factor receptor (Q16288 whole entry): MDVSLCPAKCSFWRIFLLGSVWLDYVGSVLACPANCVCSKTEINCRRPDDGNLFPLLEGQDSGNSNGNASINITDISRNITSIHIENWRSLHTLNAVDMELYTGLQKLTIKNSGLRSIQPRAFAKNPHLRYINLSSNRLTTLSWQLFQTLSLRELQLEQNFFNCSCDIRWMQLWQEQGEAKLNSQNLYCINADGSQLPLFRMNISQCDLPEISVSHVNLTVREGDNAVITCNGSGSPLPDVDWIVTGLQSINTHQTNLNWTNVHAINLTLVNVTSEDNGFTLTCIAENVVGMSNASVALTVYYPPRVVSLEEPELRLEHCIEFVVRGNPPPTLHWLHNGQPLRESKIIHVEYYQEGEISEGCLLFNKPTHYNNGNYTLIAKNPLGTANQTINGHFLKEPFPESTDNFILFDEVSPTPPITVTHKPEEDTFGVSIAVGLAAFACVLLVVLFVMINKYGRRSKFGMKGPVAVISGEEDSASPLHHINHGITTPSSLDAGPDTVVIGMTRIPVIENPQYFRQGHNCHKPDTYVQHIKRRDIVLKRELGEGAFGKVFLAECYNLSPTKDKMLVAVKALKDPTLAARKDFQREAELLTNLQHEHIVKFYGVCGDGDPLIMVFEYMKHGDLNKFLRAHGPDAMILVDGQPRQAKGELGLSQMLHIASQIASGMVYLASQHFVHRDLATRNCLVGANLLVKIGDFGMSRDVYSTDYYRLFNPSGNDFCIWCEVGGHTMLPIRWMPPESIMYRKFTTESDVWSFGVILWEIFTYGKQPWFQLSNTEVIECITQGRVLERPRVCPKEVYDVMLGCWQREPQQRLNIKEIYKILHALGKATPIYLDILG
Sequence of High affinity nerve growth factor receptor (P04629 whole entry): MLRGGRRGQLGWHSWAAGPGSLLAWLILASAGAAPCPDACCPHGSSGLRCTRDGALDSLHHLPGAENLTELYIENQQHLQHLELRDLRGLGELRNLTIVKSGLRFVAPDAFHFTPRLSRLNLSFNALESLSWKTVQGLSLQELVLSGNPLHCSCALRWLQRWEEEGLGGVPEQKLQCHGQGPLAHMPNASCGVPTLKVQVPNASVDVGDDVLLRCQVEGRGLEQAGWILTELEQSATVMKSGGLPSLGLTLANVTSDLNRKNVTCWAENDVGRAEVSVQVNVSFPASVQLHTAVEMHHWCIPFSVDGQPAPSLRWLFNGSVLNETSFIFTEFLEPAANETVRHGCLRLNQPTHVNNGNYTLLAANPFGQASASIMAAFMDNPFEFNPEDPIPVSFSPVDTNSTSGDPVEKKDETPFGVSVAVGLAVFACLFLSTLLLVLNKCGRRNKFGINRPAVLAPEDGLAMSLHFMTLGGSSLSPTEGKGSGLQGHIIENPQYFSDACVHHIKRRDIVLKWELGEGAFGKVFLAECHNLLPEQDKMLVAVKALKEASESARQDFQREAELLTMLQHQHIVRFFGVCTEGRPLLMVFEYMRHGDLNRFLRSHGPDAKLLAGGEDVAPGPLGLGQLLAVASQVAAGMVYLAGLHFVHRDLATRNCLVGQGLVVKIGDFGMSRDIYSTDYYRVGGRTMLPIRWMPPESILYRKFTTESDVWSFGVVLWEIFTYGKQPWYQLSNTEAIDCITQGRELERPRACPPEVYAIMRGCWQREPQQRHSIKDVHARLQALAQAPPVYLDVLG

- IC50 [1]: < 0.5 nM
- IC50 [2]: < 0.5 nM
- IC50 [3]: < 0.5 nM
SMILES: C[C@@H](Oc1ccn2ncc(C3=NOC(C)(C)N3)c2n1)c1c(Cl)ccc(F)c1Cl [US12435089, Example 9]
